Values after ≈ are worked out from the molar mass of the structure shown. Where two headings read alike, the source gives them in different places.
How the values were obtained:
[1] = Solubility of Compound A in water and organic solvents; type: physicochemical
[2] = Glass transition point (Tg) by DSC; type: physicochemical; details: Compound A itself
Experimental: The glass transition point of a solid dispersion can be obtained by subjecting the solid dispersion to calorimetric measurements using DSC and plotting a curve of changes in the amount of heat. In more practical terms a sample of about 10 mg is weighed out onto an aluminum pan and calorimetry is carried out for temperatures from 0° C. and 150° C. with a rate of temperature increase of 5° C. per minute. In the process of heating the sample heat is absorbed or generated at the glass transition point and, as a result, the baseline of the calorimetric curve will shift downward. Extended lines are drawn for the two baselines, namely the original baseline and the shifted baseline, and the glass transition temperature is obtained from the intersection point of the ½ line between the two baselines and the calorimetric curve.
Particles of the solid dispersion (about 10 mg) of each example and comparative example were weighed out on an aluminum pan and calorimetric measurements were made at temperatures between 0° C. to 150° C. with a rate of temperature increase of 5° C. per minute. Heat was absorbed or generated at the glass transition point in the course of heating the sample and, as a result, the baseline of the calorimetric curve shifted downward. […]

COc1ccc(-c2nc(OC)nn2-c2ccc(OC)cc2)cc1 [Compound A, 3-methoxy-1,5-bis(4-methoxyphenyl)-1H-1,2,4-triazole]
solubility ([1]; acetone, organic solvent or mixture, room temperature, read-out: solubility in organic solvent: acetone): 82.2 mg/mL (≈ 264 mM)
solubility ([1]; ethanol, organic solvent or mixture, room temperature, read-out: solubility in organic solvent: ethanol): 15.9 mg/mL (≈ 51.1 mM)
solubility ([1]; polyethylene glycol, organic solvent or mixture, room temperature, read-out: solubility in organic solvent: polyethylene glycol): 6.3 mg/mL (≈ 20.2 mM)
solubility ([1]; water, 37° C., read-out: solubility in water): 0.0107 mg/mL (≈ 0.0344 mM)
glass transition point of Compound A [2]: 4 °C

Reference: patent publication US20130137739A1, “SOLID DISPERSION COMPRISING TRIAZOLE COMPOUND” (Astellas Pharma, Inc., priority 2010, published 2013)
